In US20260193242A1, “USEFUL COMPOUNDS FOR MODULATING INFLAMMATION” (FLAGSHIP PIONEERING INNOVATIONS VI, LLC, priority 2022, published 2026):

Assays:
LPS-stimulated MoDC = assay: TLR4 stimulated pro-inflammatory cytokine release in primary human monocyte-derived dendritic cells; type: cell-based; conditions: healthy human donors D14 and D15, dose response
Text: Monocyte derived DC (MoDC) were differentiated from healthy human donor derived CD14+ monocytes. Commercially available freshly prepared Leukopaks were obtained from healthy blood donor and kept refrigerated on ice before spin centrifuged and the pelleted cells are rinsed and resuspended with MACS buffer (Miltenyi Biotec). Next, CD14+ monocytes were purified using MultiMACS™ Cell24 Separator-Plus instrumentation and reagents according to the manufacturer (Miltenyi Biotec) instructions. The resulting purified CD14+ cell fraction was washed, enumerated, and subsequently cryopreserved for later use. At the experiment first day cryopreserved CD14+ cells were thawed, rinsed with culture media, and then resuspended in culture media principally composed of RPMI (Invitrogen) supplemented with 10% v/v heat inactivated FBS. For generation of MoDC, these CD14+ cells were enumerated and seeded into 75 cm^2 tissue culture flasks in 30 mL of culture media supplemented with GM-CSF (40-100 ng/ml) and IL-4 (25 ng/ml). Every other day, half of the culture media was replaced with fresh media (containing the same cytokine supplementation) and after 6-7 days of culture, fully differentiated and mature MoDC were obtained as confirmed by conventional Immuno-phenotype markers (levels of expression or absence of surface CD80, CD83, CD86, CD209, HLA-DR, CD14 & CD64) that were verified by flow-cytometry. Fully differentiated (mature) MoDCs, were seeded into 96 flat-well plates and incubated with various concentrations of the compounds described herein, or with control solution (DMSO), or with the pharmacologic inhibitors Cyclosporin-A (CsA) or BAY 61-3606 (which is a known inhibitor of Syk kinase) for 6 hours. Next, the cells were stimulated with Toll-like receptor agonists R848 (TLR7/8) or LPS (TLR4), and further incubated for 18-20 hours. After incubation concluded, culture supernatants were collected, and the levels of inflammatory cytokines and chemokines were measured in a triplicate setting for each condition by Luminex® multiplex assay.

[1] = system: LPS induced septic shock, C57/B6L mice; assay: LPS induced septic shock model in mice; type: in vivo; conditions: 30 mg/kg PO in Phosal 50, 30 min before LPS 1 mg/kg, plasma 2 hours after LPS, vs vehicle
Procedure: In the LPS induced septic shock model in mice, the TLR4 agonist LPS is injected into the peritoneal cavity of mice, inducing production of pro-inflammatory cytokines that can be measured in blood two hours later (FIG. 2).
Female C57/B6L mice, 5 mice in each group, were injected with LPS (1 mg/kg) to induce septic shock 30 minutes after oral administration of compounds described herein (formulated in Phosal 50) or the controls dexamethasone (formulated in saline), a corticosteroid, and MCC950 (formulated in 0.5% methylcellulose), an inflammasome inhibitor. The mice were euthanized 2 hours after LPS stimulation, and the whole blood was drawn, processed to plasma, and snap frozen. Cytokine levels in plasma were determined by cytometric bead array assay.

CN1[C@@H](C(=O)O)CC[C@H]1[C@@H]1CSC(c2ccccc2O)=N1 [Compound I-4, (2R,5S)-5-((R)-2-(2-hydroxyphenyl)-4,5-dihydrothiazol-4-yl)-1-methylpyrrolidine-2-carboxylic acid]
statistically significant decrease: IL-6 level (LPS-stimulated MoDC) | IL-12p70 level (LPS-stimulated MoDC) | IL-23 level (LPS-stimulated MoDC) | TNFα level (LPS-stimulated MoDC)
statistically significant decreases: IFNγ in plasma [1] | IL-12p70 in plasma [1] | TNFα in plasma [1]
